Experimental data reported in patent EP4763839A1 (Pamplona Therapeutics (Shenzhen) Co., Ltd., priority 2023, dated 2025).

Assays:
IL-6 = assay: Inhibition of R848-induced IL-6 release in human PBMCs, IL-6 ELISA; assay type: cell-based; conditions: PBMC, compound 24 hours, then R848 10 µg/mL 5 hours
Experimental: Example 3: Detection of inhibition of R848-induced IL-6 release
Cryopreserved human PBMCs (Milestone® Biotechnologies, PB010C-W) were thawed and resuspended in RPMI-1640 medium (Gibco, 22400-105) supplemented with 10% fetal bovine serum (Gibco, 10099-141), 100 U/mL penicillin, and 100 µg/mL streptomycin (Gibco, 15140122). Subsequently, 190 µL of the PBMC suspension was added to each well of 96-well clear cell culture plates (Corning, 3599) to achieve a density of 1×10^5 cells/well. The cell plates were incubated at 37°C in a 5% CO2 incubator for 30 minutes. Then, 5 µL of diluted compound solution was added to the corresponding cell-seeded wells to achieve final concentrations ranging from 0.046 to 3,000 nM. The final concentration of DMSO was 0.1%. After the compound-treated cell plate was incubated at 37°C in a 5% CO2 incubator for 24 hours, 5 µL of R848 (MCE, HY-13740) was added to achieve a final concentration of 10 µg/mL. The cell plates were incubated again at 37°C in a 5% CO2 incubator for 5 hours, then centrifuged at 1,000 rpm for 1 minute. 100 µL of the cell supernatant from each well was transferred to a new 96-well clear cell culture plate for IL-6 concentration testing.
Interleukin-6 (IL-6) ELISA assay
The IL-6 concentration in the supernatant of R848-induced human PBMCs was determined using a Human IL-6 (interleukin-6) ELISA KIT (4Bio, CHE0009-048). IL-6 standard solutions at different concentrations, ranging from 3.9 to 250 pg/mL, were prepared according to the manufacturer's instructions. 100 µL of each concentration of the IL-6 standard solution and the pre-diluted test cell supernatant samples were added separately to anti-IL-6 antibody-coated and blocked clear 96-well plates, followed by incubation at 37°C for 1.5 hours. According to the product instructions, the plates were washed, 100 µL of biotinylated antibody was added, and the plates were incubated at 37°C for 1 hour. The plates were washed, 100 µL of enzyme conjugate working solution was added. The plates were incubated at 37°C for 30 minutes, and then washed. 100 µL of chromogenic substrate was added, and the plates were incubated at 37°C for 10-20 minutes. The reaction was terminated by adding 100 µL of stop solution. After the reaction, the OD value at 450 nm was measured in absorbance mode using an Envision microplate reader (PerkinElmer). A standard curve was plotted using the corrected OD values of the various concentrations of IL-6 standard solutions. The IL-6 concentration in each cell supernatant was then determined on the basis of the corresponding concentration for the corrected OD value of the test sample on the standard curve. […] Subsequently, the IC50 value of the compound was calculated by performing non-linear curve fitting of concentration versus inhibition rate using GraphPad Prism 9.

IRAK4 = molecular target: T1, IRAK4 (Homo sapiens, UniProt Q9NWZ3); assay: Degradation of IRAK4 in THP1 cells, Western blot; assay type: cell-based; set-up: Degradation of IRAK4 in THP1 by compound; host or cells: THP-1; conditions: THP-1 cells, 24 hours of incubation; for DC50: IRAK4 protein by Western blot, read-out: DC50; for Dmax: maximum degradation rate, read-out: Dmax
T1 sequence (Q9NWZ3 1-460): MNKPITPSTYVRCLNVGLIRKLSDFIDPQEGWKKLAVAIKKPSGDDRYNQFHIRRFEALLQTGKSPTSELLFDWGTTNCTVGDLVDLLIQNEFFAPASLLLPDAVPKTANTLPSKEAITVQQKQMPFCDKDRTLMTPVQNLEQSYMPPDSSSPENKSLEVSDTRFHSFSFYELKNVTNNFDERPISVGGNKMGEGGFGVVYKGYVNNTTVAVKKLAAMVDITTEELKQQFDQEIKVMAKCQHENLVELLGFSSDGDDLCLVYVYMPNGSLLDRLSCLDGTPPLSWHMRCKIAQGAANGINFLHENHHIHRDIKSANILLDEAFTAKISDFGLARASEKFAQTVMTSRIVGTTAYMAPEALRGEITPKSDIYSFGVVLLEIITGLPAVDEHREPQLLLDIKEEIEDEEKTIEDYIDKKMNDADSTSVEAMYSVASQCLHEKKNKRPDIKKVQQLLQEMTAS
In short: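 Degradation rate derived from densitometry of IRAK4 bands versus DMSO-treated controls. Read-out: anti-IRAK4 immunoblot (10% gel, 40 μg total protein per lane, BCA-normalised) of lysates from THP1 cells incubated with compound for 24 h.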

[1] = Pharmacokinetic detection in rats after intravenous injection and oral administration; assay type: in vivo, Sprague-Dawley (SD) rats; conditions: rat; for AUC / Cmax / half-life: in vivo, oral administration
Experimental: Example 4. Pharmacokinetic detection
This study was designed to investigate the pharmacokinetic properties of the compounds in rats following intravenous injection and oral administration.
Experimental protocol: Six healthy male Sprague-Dawley (SD) rats were used for each compound, randomly divided into two groups of three animals each, with body weights ranging from 180-220 g. The rats were fasted overnight (10-14 hours) prior to administration, with free access to water, and food was restored 4 hours after administration. The compounds were formulated in a vehicle consisting of 5% DMSO + 10% solutol + 85% physiological saline (w/v). […] For A170, A177, and A180, the intravenous injection group received a dose of 1 mg/kg with an administration volume of 1 mL/kg, and the oral administration group received a dose of 5 mg/kg with an administration volume of 5 mL/kg. Blank blood samples were collected prior to administration. After administration, 0.2 mL of blood was collected from the jugular vein or other suitable methods at predetermined time points (0.083 h, 0.25 h, 0.5 h, 1 h, 2 h, 4 h, 8 h, 24 h) into EDTA-K2 anticoagulant tubes, and plasma was separated by centrifugation at 6800 g for 6 minutes. After the experiment, the concentration of the compound in plasma was quantitatively detected using liquid chromatography-tandem mass spectrometry (LCMS/MS). Pharmacokinetic parameters were calculated on the basis of the plasma concentration data at different time points using Phoenix WinNonlin version 8.3.5.

[2] = oral 10 mg/kg, intravenous 2 mg/kg
[3] = oral 5 mg/kg, intravenous 1 mg/kg

With NC(=O)c1nn(-c2ccc(N3CCN(CC4CCN(c5ccc6c(c5)CN(C5CCC(=O)NC5=O)C6=O)CC4)CC3)cc2)cc1NC(=O)c1cccc(C(F)(F)F)n1 (centres unmarked) [Compound A169] the IC50 (IL-6) was less than 10 nM, the DC50 (IRAK4) was less than 100 nM and the Dmax (IRAK4) was greater than 60%. The AUC ([1]; 10 mg/kg) was 3520 ng·h/mL, the Cmax ([1]; 10 mg/kg) was 408 ng/mL and the half-life ([1]; 10 mg/kg) was 5 h. It also gave an F [1, 2] of 16%.

In the case of NC(=O)c1nn(-c2ccc(N3CCN(CC4CCN(c5ccc6c(c5)CN(C5CCC(=O)NC5=O)C6=O)CC4(F)F)CC3)cc2)cc1NC(=O)c1cccc(C(F)(F)F)n1 (centres unmarked) [Compound A170], the IC50 (IL-6) is reported as less than 10 nM, the DC50 (IRAK4) is reported as less than 100 nM and the Dmax (IRAK4) is reported as greater than 60%. For the same compound, the AUC ([1]; 5 mg/kg) was 2160 ng·h/mL, the Cmax ([1]; 5 mg/kg) was 285 ng/mL and the half-life ([1]; 5 mg/kg) was 7 h. The F [1, 3] was 28%.

NC(=O)c1nn(-c2ccc(N3CCN(CCN4CCN(c5ccc6c(c5)C(=O)N(C5CCC(=O)NC5=O)C6=O)CC4)CC3)cc2)cc1NC(=O)c1cccc(C(F)(F)F)n1 (centres unmarked) [Compound A173] showed an IC50 (IL-6) of less than 10 nM, an AUC ([1]; 10 mg/kg) of 1130 ng·h/mL and a Cmax ([1]; 10 mg/kg) of 107 ng/mL. It also gave a half-life ([1]; 10 mg/kg) of 21 h and an F [1, 2] of 18%.

Cn1c(=O)n(C2CCC(=O)NC2=O)c2ccc(N3CCC(CN4CCN(c5ccc(-n6cc(NC(=O)c7cccc(C(F)(F)F)n7)c(C(N)=O)n6)cc5)CC4)CC3)cc21 (centres unmarked) [Compound A177] gave an IC50 (IL-6) of less than 10 nM, a DC50 (IRAK4) of less than 100 nM and a Dmax (IRAK4) greater than 60%. It also gave an AUC ([1]; 5 mg/kg) of 1230 ng·h/mL, a Cmax ([1]; 5 mg/kg) of 120 ng/mL and a half-life ([1]; 5 mg/kg) of 8 h. For the same compound, the F [1, 3] was 8%.

Cn1c(=O)n(C2CCC(=O)NC2=O)c2cccc(N3CCN(CCN4CCN(c5ccc(N6C=C(NC(=O)c7cccc(C(F)(F)F)n7)C(=C=O)N6)cc5)CC4)CC3)c21 (centres unmarked) [Compound A180, N-(3-carbonyl-1-(4-(4-(2-(4-(1-(2,6-dioxopiperidin-3-yl)-3-methyl-2-oxo-2,3-dihydro-1H-benzo[d]imidazol-4-yl)piperazin-1-yl)ethyl)piperazin-1-yl)phenyl)-1H-pyrazol-4-yl)-6-(trifluoromethyl)picolinamide] gave an IC50 (IL-6) of less than 10 nM, a DC50 (IRAK4) of less than 100 nM and a Dmax (IRAK4) greater than 60%.

Cn1c(=O)n(C2CCC(=O)NC2=O)c2cccc(N3CCC(CCN4CCN(c5ccc(-n6cc(NC(=O)c7cccc(C(F)(F)F)n7)c(C(N)=O)n6)cc5)CC4)CC3)c21 (centres unmarked) [Compound A182, N-(3-carbamoyl-1-(4-(4-(2-(1-(1-(2,6-dioxopiperidin-3-yl)-3-methyl-2-oxo-2,3-dihydro-1H-benzo[d]imidazol-4-yl)piperidin-4-yl)ethyl)piperazin-1-yl)phenyl)-1H-pyrazol-4-yl)-6-(trifluoromethyl)picolinamide] gave an IC50 (IL-6) of less than 10 nM, a DC50 (IRAK4) of less than 100 nM and a Dmax (IRAK4) greater than 60%.

Work on COc1ccc(C(=O)N2CCC(CCN3CCN(c4ccc(N5C=C(NC(=O)c6cccc(C(F)(F)F)n6)C(=C=O)N5)cc4)CC3)C2)cc1N1CCC(=O)NC1=O (centres unmarked) [Compound A183, N-(3-carbonyl-1-(4-(4-(2-(1-(3-(2,4-dioxotetrahydropyrimidin-1(2H)-yl)-4-methoxybenzoyl)pyrrolidin-3-yl)ethyl)piperazin-1-yl)phenyl)-1H-pyrazol-4-yl)-6-(trifluoromethyl)picolinamide] yielded an IC50 (IL-6) of less than 10 nM, a DC50 (IRAK4) of less than 100 nM and a Dmax (IRAK4) greater than 60%.

Compound Cn1c(-c2ccc(N3CCC(CN4CCN(c5ccc(-n6cc(NC(=O)c7cccc(C(F)(F)F)n7)c(C(N)=O)n6)cc5)CC4)C3)cc2)nn(C2CCC(=O)NC2=O)c1=O (centres unmarked) [Compound A187] has an IC50 (IL-6) of less than 10 nM, a DC50 (IRAK4) of less than 100 nM and a Dmax (IRAK4) greater than 60%.

Cn1c(-c2ccc(N3CCC(CN4CCN(c5ccc(-n6cc(NC(=O)c7cccc(C(F)(F)F)n7)c(C(N)=O)n6)cc5)CC4)CC3)cc2)nn(C2CCC(=O)NC2=O)c1=O (centres unmarked) [Compound A189] showed an IC50 (IL-6) of 10 to 30 nM, a DC50 (IRAK4) of 100 to 1000 nM and a Dmax (IRAK4) greater than 60%.

With NC(=O)c1nn(-c2ccc(N3CCN(CC4CCN(c5ccc(NC6CCC(=O)NC6=O)cc5F)CC4)CC3)cc2)cc1NC(=O)c1cccc(C(F)(F)F)n1 (centres unmarked) [Compound A195] the IC50 (IL-6) was less than 10 nM, the AUC ([1]; 10 mg/kg) was 19300 ng·h/mL and the Cmax ([1]; 10 mg/kg) was 1250 ng/mL. The half-life ([1]; 10 mg/kg) was 15 h and the F [1, 2] was 52%.

With NC(=O)c1nn(-c2ccc(N3CCN(CCC4CCN(c5cccc(NC6CCC(=O)NC6=O)c5)CC4)CC3)cc2)cc1NC(=O)c1cccc(C(F)(F)F)n1 (centres unmarked) [Compound A196] the IC50 (IL-6) was less than 10 nM, the DC50 (IRAK4) was less than 100 nM and the Dmax (IRAK4) was greater than 60%.

For NC(=O)c1nn(-c2ccc(N3CCN(CC4CCN(c5cccc(NC6CCC(=O)NC6=O)c5)CC4)CC3)cc2)cc1NC(=O)c1cccc(C(F)(F)F)n1 (centres unmarked) [Compound A197], the IC50 (IL-6) was 10 to 30 nM, the DC50 (IRAK4) was less than 100 nM and the Dmax (IRAK4) was greater than 60%.

NC(=O)c1nn(-c2ccc(CN3CCC4(CC3)CN(c3ccc5c(c3)C(=O)N(C3CCC(=O)NC3=O)C5=O)C4)cc2)cc1NC(=O)c1cccc(C(F)(F)F)n1 (centres unmarked) [Compound A224, N-(3-carbamoyl-1-(4-((2-(2-(2,6-dioxopiperidin-3-yl)-1,3-dioxoisoindolin-5-yl)-2,7-diazaspiro[3.5]nonan-7-yl)methyl)phenyl)-1H-pyrazol-4-yl)-6-(trifluoromethyl)picolinamide] gave an IC50 (IL-6) of 10 to 30 nM, a DC50 (IRAK4) of 100 to 1000 nM and a Dmax (IRAK4) greater than 60%.

For NC(=O)c1nn(-c2ccc(N3CCN(CC4CCN(c5ccc6c(c5)C(=O)N(C5CCC(=O)NC5=O)C6=O)C4)CC3)cc2)cc1NC(=O)c1cccc(C(F)(F)F)n1 (centres unmarked) [Compound A227], the IC50 (IL-6) was less than 10 nM, the DC50 (IRAK4) was less than 100 nM and the Dmax (IRAK4) was greater than 60%.

In the case of NC(=O)c1nn(-c2ccc(N3CCC(NCC4CCN(c5ccc6c(c5)C(=O)N(C5CCC(=O)NC5=O)C6=O)C4)CC3)cc2)cc1NC(=O)c1cccc(C(F)(F)F)n1 (centres unmarked) [Compound A228], the IC50 (IL-6) is reported as less than 10 nM, the DC50 (IRAK4) is reported as less than 100 nM and the Dmax (IRAK4) is reported as greater than 60%.

Compound Cn1c(=O)n(C2CCC(=O)NC2=O)c2cccc(C#CCOC3CCN(CC4CCC(n5cc(NC(=O)c6cnn7ccc(N8CC9CC8CO9)nc67)c(C(F)F)n5)CC4)CC3)c21 (centres unmarked) [Control compound 1, reference compound] has an AUC ([1]; 10 mg/kg) of 428 ng·h/mL, a Cmax ([1]; 10 mg/kg) of 98 ng/mL and a half-life ([1]; 10 mg/kg) of 4 h. For the same compound, the F [1, 2] was 8%.
